Source: BindingDB's records for patent US10723705 (Incyte, 2020)

target: T1, Histone deacetylase 8 (Homo sapiens, UniProt Q9BY41); assay: Enzymatic Assay
T1 sequence (Q9BY41 whole entry): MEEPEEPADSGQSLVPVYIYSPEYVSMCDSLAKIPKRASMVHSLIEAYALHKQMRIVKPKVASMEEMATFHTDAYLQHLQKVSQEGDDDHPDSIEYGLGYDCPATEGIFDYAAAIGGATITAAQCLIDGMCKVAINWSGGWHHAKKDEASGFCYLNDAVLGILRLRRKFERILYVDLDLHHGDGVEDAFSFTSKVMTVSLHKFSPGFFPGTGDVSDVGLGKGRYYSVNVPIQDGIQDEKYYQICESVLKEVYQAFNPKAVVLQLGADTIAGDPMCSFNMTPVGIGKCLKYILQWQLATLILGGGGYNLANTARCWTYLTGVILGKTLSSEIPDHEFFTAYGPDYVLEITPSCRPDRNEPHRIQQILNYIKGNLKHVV
Protocol: HDAC-Glo I/II Assay Kit was purchased from Promega Corporation (Madison, Wis.), including the following components: HDAC-Glo I/II Buffer (25 mM Tris buffer, pH 8.0, supplemented with 137 mM: NaCl, 2.7 mM KCl, 1% v/v Triton X-100 and 1 mM: MgCl2), luminogenic substrates Boc-GAK(Ac)-aminoluciferin (HDAC-Glo I/II substrate), proprietary developer reagent (containing trypsin). Assay:The HDAC8 reaction was performed at room temperature in white 384-well polystyrene, flat-bottom microtiter plate (Greiner Bio-one, Monroe, N.C.) in a final volume of 20 μL. Test compounds were first diluted serially in DMSO and 100 nL were transferred to the plate wells by Echo 550 (Labcyte, Sunnyvale, Calif.) before the addition of other reaction components. The final concentration of DMSO in the assay was 0.5%. The HDAC-Glo I/II assay reagent was prepared by rehydration of lyophilized HDAC-Glo I/II substrate in 10 mL. HDAC-Glo I/II assay buffer followed with the addition of 10 μL of developer reagent. 10 uL of 3 nM HDAC8 in the HDAC-Glo I/II assay buffer were first dispensed into the microliter plate containing the compounds and incubated at room temperature for 30 min. The reactions were initiated with the addition of 10 uL HDAC-Glo I/II assay reagent with Multidrop.

IC50, in the range around 375 nM:
O=C(NO)C(Cc1ccccc1)N1C=CC2C(Cl)=NC=CC21 (stereo not drawn) [US10723705, No. I-0196]
O=C(NO)C(Cc1ccccc1)N1C=CC2C=C(Cl)C=NC21 (stereo not drawn) [US10723705, No. I-0195]
O=C(NO)C(Cc1ccccc1)N1N=CC2C(Cl)=NC=CC21 (stereo not drawn) [US10723705, No. I-0055]
